US4842847A, “Dental calculus inhibiting compositions” (The B. F. Goodrich Company, priority 1987, dated 1989)
Read-outs that look alike come from different tables or passages of the source.

Details: pyrophosphate 25 ppm; for Time of Crystal Growth Inhibition: no anticalculus agent, pH 7.20, 25° C.
Method: The in vitro formation of hydroxyapatite (HAP) was measured titrimetrically using the pH - stat method described in Example I, above.
The pyrophosphate was used at the level of 25 ppm.

O=P(O)(O)OP(=O)(O)O [pyrophosphate]
effectiveness of pyrophosphate when incubated with enzyme (in words) (absence of anticalculus agent polymer, with enzyme): drastically reduced
Time of Crystal Growth Inhibition (pyrophosphatase No): 30 min
Time of Crystal Growth Inhibition (pyrophosphatase Yes): 11 min
delay of HAP formation (in words) (no enzyme): significantly delays HAP forma;tion
